Test results reported in patent US20030104507A1, “Method for detection of ATP” (priority 2001, published 2003).

Test system: ATPase activity endogenous to L929 cell lysate
Test: Detergent inhibition of ATPase endogenous to L929 cell lysate (ATP remaining by luciferase luminescence, 22° C.)
Type: biochemical
Set-up: key to Relative ATPase Activity, slope det/slope lysate: slope with detergent / slope without; ≥1.0 = 100% activity, 0.5 = 50%
Method in brief: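 L929 lysate (1.5×10^5 cells/ml, four freeze–thaw cycles) held with detergent at final 1.0, 0.5, 0.1 or 0.05% at 22° C; remaining ATP read over time with luciferase-luciferin reagent (100 μM luciferin, 10 mM MgSO4, pH 7.5). Relative ATPase activity = slope of log % ATP remaining vs time with detergent ÷ slope for lysate-only control.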

[1] = 0.50 percent detergent, second 0.50 line of DTAB (assayed on two days)
[2] = Example 2, 0.02% detergent, 5 min
[3] = Example 2, 0.02% detergent, 75 min
[4] = Example 2, 0.02% detergent, 169 min
[5] = Example 2, 0.02% detergent, 222 min
[6] = Example 2, 0.02% detergent, 260 min
[7] = Example 2, 0.5% detergent, 5 min
[8] = Example 2, 0.5% detergent, 75 min
[9] = Example 2, 0.5% detergent, 169 min
[10] = Example 2, 0.5% detergent, 222 min
[11] = Example 2, 0.5% detergent, 260 min

With CCCCCCCCCCCC[N+](C)(C)C.[Br-] [DTAB, dodecyltrimethylammonium bromide] the “Relative ATPase Activity, slope det/slope lysate” value (0.02 percent detergent) was 0.884, the “Slope (log percent ATP remaining vs time in minutes)” value (0.02 percent detergent) was −0.0056 and the “Average Relative Light Unit Values” (0.05% detergent, 5 min) was 6487.93 rlu. For the same compound, the “Percent ATP Remaining” value (0.05% detergent, 5 min) was 100%, the “Average Relative Light Unit Values” (0.05% detergent, 75 min) was 3138.81 rlu and the “Percent ATP Remaining” value (0.05% detergent, 75 min) was 48.4%. For the same compound, the “Average Relative Light Unit Values” (0.05% detergent, 169 min) was 1496.01 rlu, the “Percent ATP Remaining” value (0.05% detergent, 169 min) was 23.1% and the “Average Relative Light Unit Values” (0.05% detergent, 222 min) was 943.40 rlu. The “Percent ATP Remaining” value (0.05% detergent, 222 min) was 14.5%, the “Average Relative Light Unit Values” (0.05% detergent, 260 min) was 638.30 rlu and the “Percent ATP Remaining” value (0.05% detergent, 260 min) was 9.8%. The “Relative ATPase Activity, slope det/slope lysate” value (0.05 percent detergent) was 0.690, the “Slope (log percent ATP remaining vs time in minutes)” value (0.05 percent detergent) was −0.0039 and the “Average Relative Light Unit Values” (0.1% detergent, 5 min) was 6991.01 rlu. For the same compound, the “Percent ATP Remaining” value (0.1% detergent, 5 min) was 100%, the “Average Relative Light Unit Values” (0.1% detergent, 75 min) was 4753.46 rlu and the “Percent ATP Remaining” value (0.1% detergent, 75 min) was 68.0%. The “Average Relative Light Unit Values” (0.1% detergent, 169 min) was 2737.36 rlu, the “Percent ATP Remaining” value (0.1% detergent, 169 min) was 39.2% and the “Average Relative Light Unit Values” (0.1% detergent, 222 min) was 1950.95 rlu. For the same compound, the “Percent ATP Remaining” value (0.1% detergent, 222 min) was 27.9%, the “Average Relative Light Unit Values” (0.1% detergent, 260 min) was 1408.18 rlu and the “Percent ATP Remaining” value (0.1% detergent, 260 min) was 20.1%. The “Relative ATPase Activity, slope det/slope lysate” value (0.10 percent detergent) was 0.480, the “Slope (log percent ATP remaining vs time in minutes)” value (0.10 percent detergent) was −0.0027 and the “Percent ATP Remaining” value (0.5% (1), 5 min) was 100%. For the same compound, the “Percent ATP Remaining” value (0.5% (1), 75 min) was 90.6%, the “Percent ATP Remaining” value (0.5% (1), 169 min) was 88.0% and the “Percent ATP Remaining” value (0.5% (1), 222 min) was 87.3%. The “Percent ATP Remaining” value (0.5% (1), 260 min) was 80.2%, the “Percent ATP Remaining” value (0.5% (2), 5 min) was 100% and the “Percent ATP Remaining” value (0.5% (2), 75 min) was 95.8%. The “Percent ATP Remaining” value (0.5% (2), 169 min) was 90.3%, the “Percent ATP Remaining” value (0.5% (2), 222 min) was 88.0% and the “Percent ATP Remaining” value (0.5% (2), 260 min) was 85.0%. The “Average Relative Light Unit Values” (0.5% (day 1), 5 min) was 5630.61 rlu, the “Average Relative Light Unit Values” (0.5% (day 1), 75 min) was 5100.09 rlu and the “Average Relative Light Unit Values” (0.5% (day 1), 169 min) was 4957.48 rlu. For the same compound, the “Average Relative Light Unit Values” (0.5% (day 1), 222 min) was 4916.46 rlu, the “Average Relative Light Unit Values” (0.5% (day 1), 260 min) was 4515.20 rlu and the “Average Relative Light Unit Values” (0.5% (day 2), 5 min) was 6617.08 rlu. The “Average Relative Light Unit Values” (0.5% (day 2), 75 min) was 6341.09 rlu, the “Average Relative Light Unit Values” (0.5% (day 2), 169 min) was 5977.33 rlu and the “Average Relative Light Unit Values” (0.5% (day 2), 222 min) was 5824.18 rlu. For the same compound, the “Average Relative Light Unit Values” (0.5% (day 2), 260 min) was 5622.12 rlu, the “Relative ATPase Activity, slope det/slope lysate” value (0.50 percent detergent) was 0.055 and the “Slope (log percent ATP remaining vs time in minutes)” value (0.50 percent detergent) was −0.0003. For the same compound, the “Relative ATPase Activity, slope det/slope lysate” value [1] was 0.048, the “Slope (log percent ATP remaining vs time in minutes)” value [1] was −0.0003 and the “Average Relative Light Unit Values” (1.0% detergent, 5 min) was 800.61 rlu. For the same compound, the “Percent ATP Remaining” value (1.0% detergent, 5 min) was 100%, the “Average Relative Light Unit Values” (1.0% detergent, 75 min) was 693.13 rlu and the “Percent ATP Remaining” value (1.0% detergent, 75 min) was 86.6%. For the same compound, the “Average Relative Light Unit Values” (1.0% detergent, 169 min) was 649.41 rlu, the “Percent ATP Remaining” value (1.0% detergent, 169 min) was 81.1% and the “Average Relative Light Unit Values” (1.0% detergent, 222 min) was 671.03 rlu. The “Percent ATP Remaining” value (1.0% detergent, 222 min) was 83.8%, the “Average Relative Light Unit Values” (1.0% detergent, 260 min) was 645.40 rlu and the “Percent ATP Remaining” value (1.0% detergent, 260 min) was 80.6%. The “Relative ATPase Activity, slope det/slope lysate” value (1.00 percent detergent) was 0.057, the “Slope (log percent ATP remaining vs time in minutes)” value (1.00 percent detergent) was −0.0003 and the “Average Relative Light Unit Values” [2] was 5870.43 rlu. The “Percent ATP Remaining” value [2] was 100.00%, the “Average Relative Light Unit Values” [3] was 1997.09 rlu and the “Percent ATP Remaining” value [3] was 34.02%. For the same compound, the “Average Relative Light Unit Values” [4] was 435.05 rlu, the “Percent ATP Remaining” value [4] was 7.41% and the “Average Relative Light Unit Values” [5] was 329.83 rlu. For the same compound, the “Percent ATP Remaining” value [5] was 5.62%, the “Average Relative Light Unit Values” [6] was 227.72 rlu and the “Percent ATP Remaining” value [6] was 3.88%. For the same compound, the “Average Relative Light Unit Values” [7] was 5189.8 rlu, the “Percent ATP Remaining” value [7] was 100.00% and the “Average Relative Light Unit Values” [8] was 4564.65 rlu. The “Percent ATP Remaining” value [8] was 87.95%, the “Average Relative Light Unit Values” [9] was 4111.89 rlu and the “Percent ATP Remaining” value [9] was 79.23%. For the same compound, the “Average Relative Light Unit Values” [10] was 4230.51 rlu, the “Percent ATP Remaining” value [10] was 81.52% and the “Average Relative Light Unit Values” [11] was 4267.32 rlu. The “Percent ATP Remaining” value [11] was 82.23% and the “concentrations which resulted in a 25% or greater decrease in the relative ATPase activity” value (compared to reactions in the absence of detergent) was at least 0.05%.
